Reference: ChEMBL document CHEMBL5223082, “Alkyl-Aryl-Vancomycins: Multimodal Glycopeptides with Weak Dependence on the Bacterial Metabolic State” (J Med Chem, 2021)
Activity calls are given as the source filed them. No cut-off for these calls is given here.

Key:
[1] = Induction of hemolysis in human erythrocytes at 250 uM incubated for 1 hr by microtiter plater reader analysis; type: toxicity, cell-based, Erythrocyte; conditions: read-out: Activity
[2] = Cytotoxicity against human HEK293 cells assessed as cell viability at 0.5 to 30 uM incubated for 24 hrs by AlamarBlue assay; type: toxicity, cell-based; conditions: dose 0.5-30 µM, read-out: Activity
[3] = test system: Enterococcus; assay: Antibacterial activity against Vancomycin-resistant Enterococci NR30903 assessed as inhibition of bacterial growth incubated for 18 to 24 hrs by CLSI microbroth dilution method; type: functional; conditions: time 18-24 hrs
[4] = Hepatotoxicity in mouse assessed as plasma ALT level at 12 mg/kg, ip measured after 48 hrs; type: toxicity, organism-based; conditions: in vivo
[5] = test system: Staphylococcus aureus; assay: Antibacterial activity against Methicillin-resistant Staphylococcus aureus ATCC 33591 assessed as inhibition of bacterial growth incubated for 18 to 24 hrs in presence of 50% human liver homogenate by CLSI microbroth dilution method; type: functional; conditions: ATCC 33591, Liver, time 18-24 hrs
[6] = test system: Enterococcus; assay: Bactericidal activity against Vancomycin-resistant Enterococci assessed as reduction in bacterial colonies at MIC to 2XMIC incubated for 6 hrs in broth solution followed by culturing for 24 hrs on agar plate by spot plating method; type: functional, organism-based; conditions: time 30.0 hrs

## CCCCCCCCCCNC(=O)C[N+](C)(C)CCCNC(=O)c1ccc(CN[C@@]2(C)C[C@H](O[C@H]3[C@H](Oc4c5cc6cc4Oc4ccc(cc4Cl)[C@@H](O)[C@@H](NC(=O)[C@@H](CC(C)C)NC)C(=O)N[C@@H](CC(N)=O)C(=O)N[C@H]6C(=O)N[C@H]4C(=O)N[C@H](C(=O)N[C@H](C(=O)O)c6cc(O)cc(O)c6-c6cc4ccc6O)[C@H](O)c4ccc(c(Cl)c4)O5)O[C@H](CO)[C@@H](O)[C@@H]3O)O[C@@H](C)[C@H]2O)cc1
[1]
  hemolysis at 1 h, 250 µM: 1%
[2]
  viability at 24 h, up to 30 µM: 100%
[3]
  MIC: 0.45 µM
[4]
  Activity: 62.25 U/L
[5]
  MIC: 0.9 µM
[6]
  Activity: inactive
